ChEMBL document CHEMBL1158921, “Antitumor agents, 116. Cytotoxic triterpenes from Maytenus diversifolia” (1990)
Values after ≈ are worked out from the molar mass of the structure shown. Active and inactive are the calls of the source. The calls are words filed in the database; no cut-off is given here.

What was measured:
Type in all cases: functional
L1210 = test: Cytotoxicity against mouse L1210 cells
KB = test: Cytotoxicity against human KB cells
A549 = test: Cytotoxicity against human A549 cells; conditions: for EC50: read-out: ED50 (the source's name)
[1] = read-out: ED50 (the source's name)

C[C@H]1C(=O)CC[C@@H]2[C@]1(C)CC[C@H]1[C@@]2(C)CC[C@@]2(C)[C@@H]3CC(C)(C)CC[C@]3(C(=O)O)CC[C@]12C
EC50 (L1210; [1]): 2.95 µg/mL (≈ 6.46 µM) | EC50 (KB; [1]): 3.7 µg/mL (≈ 8.1 µM) | EC50 (A549): 1.18 µg/mL (≈ 2.58 µM)

C[C@H]1C(=O)CC[C@@H]2[C@]1(C)CC[C@H]1[C@@]2(C)CC[C@@]2(C)[C@@H]3C[C@](C)(C(=O)O)CC[C@]3(C)CC[C@]12C [MAYTENOIC ACID]
EC50 (A549): 0.21 µg/mL (≈ 0.46 µM)

C[C@H]1C(=O)CC[C@@H]2[C@]1(C)CC[C@H]1[C@@]2(C)CC[C@@]2(C)[C@@H]3C[C@](C)(CO)CC[C@]3(CO)CC[C@]12C
EC50 (A549): 0.64 µg/mL (≈ 1.4 µM)

C[C@H]1[C@H](C)CC[C@]2(C(=O)O)CC[C@]3(C)C(=CC[C@@H]4[C@@]5(C)CC[C@H](O)C(C)(C)[C@@H]5CC[C@]43C)[C@H]12
Activity (L1210): Active | Activity (KB): Active | Activity (A549): Active
